Columns and labels:
[1] = biological target: Uncharacterized serine/threonine-protein kinase SBK3 (Homo sapiens) (UniProt P0C264); conditions: Compound concentration 100.0 nM
[2] = biological target: Mitogen-activated protein kinase kinase kinase kinase 2 (Homo sapiens) (UniProt Q12851); conditions: Compound concentration 100.0 nM
[3] = biological target: Tyrosine-protein kinase FRK (Homo sapiens) (UniProt P42685); conditions: Compound concentration 100.0 nM
[4] = biological target: Sigma non-opioid intracellular receptor 1 (Homo sapiens) (UniProt Q99720); conditions: Compound concentration 10.0 uM
[5] = biological target: Activin receptor type-1B (Homo sapiens) (UniProt P36896); conditions: Compound concentration 100.0 nM
[6] = biological target: Receptor-interacting serine/threonine-protein kinase 1 (Homo sapiens) (UniProt Q13546); conditions: Compound concentration 100.0 nM
[7] = biological target: Mitogen-activated protein kinase kinase kinase 20 (Homo sapiens) (UniProt Q9NYL2); conditions: Compound concentration 100.0 nM
[8] = biological target: Protein-tyrosine kinase 6 (Homo sapiens) (UniProt Q13882); conditions: Compound concentration 100.0 nM
[9] = tested on: Tyrosine-protein kinase ABL1 (Homo sapiens), P00519 [E255K]; conditions: Compound concentration 100.0 nM
[10] = tested on: Receptor-type tyrosine-protein kinase FLT3 (Homo sapiens), P36888 [D835V]; conditions: Compound concentration 100.0 nM
[11] = biological target: Serine/threonine-protein kinase RIO1 (Homo sapiens) (UniProt Q9BRS2); conditions: Compound concentration 100.0 nM
[12] = biological target: Mitogen-activated protein kinase kinase kinase 15 (Homo sapiens) (UniProt Q6ZN16); conditions: Compound concentration 100.0 nM
[13] = biological target: Dual specificity protein kinase CLK4 (Homo sapiens) (UniProt Q9HAZ1); conditions: Compound concentration 100.0 nM
[14] = biological target: Ephrin type-A receptor 5 (Homo sapiens) (UniProt P54756); conditions: Compound concentration 100.0 nM
Chain of Ephrin type-A receptor 5 (Homo sapiens) (P54756 whole entry): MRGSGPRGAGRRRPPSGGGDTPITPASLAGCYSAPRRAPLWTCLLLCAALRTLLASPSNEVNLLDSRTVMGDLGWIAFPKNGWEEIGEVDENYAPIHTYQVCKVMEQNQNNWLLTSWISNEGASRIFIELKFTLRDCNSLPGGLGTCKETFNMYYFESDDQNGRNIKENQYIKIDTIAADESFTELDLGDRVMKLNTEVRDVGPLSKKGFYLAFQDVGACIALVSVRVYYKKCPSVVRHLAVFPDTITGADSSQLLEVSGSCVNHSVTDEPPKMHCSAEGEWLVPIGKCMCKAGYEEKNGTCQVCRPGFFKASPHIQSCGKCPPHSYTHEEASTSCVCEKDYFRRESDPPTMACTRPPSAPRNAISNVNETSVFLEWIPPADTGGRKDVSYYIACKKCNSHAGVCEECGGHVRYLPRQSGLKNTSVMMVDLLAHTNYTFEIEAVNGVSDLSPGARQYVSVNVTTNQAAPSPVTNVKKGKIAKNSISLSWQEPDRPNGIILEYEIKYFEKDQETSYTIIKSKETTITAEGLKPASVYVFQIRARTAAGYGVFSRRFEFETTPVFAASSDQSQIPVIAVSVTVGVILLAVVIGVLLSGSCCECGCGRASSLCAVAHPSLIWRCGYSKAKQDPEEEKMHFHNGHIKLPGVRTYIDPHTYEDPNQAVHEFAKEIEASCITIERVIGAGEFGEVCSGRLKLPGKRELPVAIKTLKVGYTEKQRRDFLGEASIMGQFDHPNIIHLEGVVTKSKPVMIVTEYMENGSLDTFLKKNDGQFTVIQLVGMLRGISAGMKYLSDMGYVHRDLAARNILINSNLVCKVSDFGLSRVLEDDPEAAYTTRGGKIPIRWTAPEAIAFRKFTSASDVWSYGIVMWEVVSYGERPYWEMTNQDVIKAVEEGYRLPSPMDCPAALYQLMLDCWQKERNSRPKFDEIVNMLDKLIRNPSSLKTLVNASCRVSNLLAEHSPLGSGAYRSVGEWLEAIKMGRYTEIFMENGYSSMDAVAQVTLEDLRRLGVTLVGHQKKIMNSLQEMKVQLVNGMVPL

[15] = biological target: Serine/threonine-protein kinase ICK (Homo sapiens) (UniProt Q9UPZ9); conditions: Compound concentration 100.0 nM
[16] = biological target: Serine/threonine-protein kinase B-raf (Homo sapiens) (UniProt P15056); conditions: Compound concentration 100.0 nM
[17] = biological target: Mitogen-activated protein kinase 8 (Homo sapiens) (UniProt P45983); conditions: Compound concentration 100.0 nM
[18] = biological target: Maternal embryonic leucine zipper kinase (Homo sapiens) (UniProt Q14680); conditions: Compound concentration 100.0 nM
[19] = biological target: Eukaryotic translation initiation factor 2-alpha kinase 1 (Homo sapiens) (UniProt Q9BQI3); conditions: Compound concentration 100.0 nM
[20] = biological target: Testis-specific serine/threonine-protein kinase 1 (Homo sapiens) (UniProt Q9BXA7); conditions: Compound concentration 100.0 nM
[21] = biological target: Dual specificity mitogen-activated protein kinase kinase 2 (Homo sapiens) (UniProt P36507); conditions: Compound concentration 100.0 nM
[22] = biological target: Sigma intracellular receptor 2 (Homo sapiens, UniProt Q5BJF2); conditions: Compound concentration 10.0 uM
Chain of Sigma intracellular receptor 2 (Q5BJF2 whole entry, canonical isoform): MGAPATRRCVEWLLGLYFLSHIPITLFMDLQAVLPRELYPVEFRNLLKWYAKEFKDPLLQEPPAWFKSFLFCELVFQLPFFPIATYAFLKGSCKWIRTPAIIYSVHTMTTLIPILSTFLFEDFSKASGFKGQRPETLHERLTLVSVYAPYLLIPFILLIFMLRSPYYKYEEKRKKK

[23] = tested on: Phosphatidylinositol 4,5-bisphosphate 3-kinase catalytic subunit alpha isoform (Homo sapiens), P42336 [M1043I]; conditions: Compound concentration 100.0 nM
Chain of Phosphatidylinositol 4,5-bisphosphate 3-kinase catalytic subunit alpha isoform (Homo sapiens), P42336 [M1043I] (P42336 whole entry M1043I, canonical isoform): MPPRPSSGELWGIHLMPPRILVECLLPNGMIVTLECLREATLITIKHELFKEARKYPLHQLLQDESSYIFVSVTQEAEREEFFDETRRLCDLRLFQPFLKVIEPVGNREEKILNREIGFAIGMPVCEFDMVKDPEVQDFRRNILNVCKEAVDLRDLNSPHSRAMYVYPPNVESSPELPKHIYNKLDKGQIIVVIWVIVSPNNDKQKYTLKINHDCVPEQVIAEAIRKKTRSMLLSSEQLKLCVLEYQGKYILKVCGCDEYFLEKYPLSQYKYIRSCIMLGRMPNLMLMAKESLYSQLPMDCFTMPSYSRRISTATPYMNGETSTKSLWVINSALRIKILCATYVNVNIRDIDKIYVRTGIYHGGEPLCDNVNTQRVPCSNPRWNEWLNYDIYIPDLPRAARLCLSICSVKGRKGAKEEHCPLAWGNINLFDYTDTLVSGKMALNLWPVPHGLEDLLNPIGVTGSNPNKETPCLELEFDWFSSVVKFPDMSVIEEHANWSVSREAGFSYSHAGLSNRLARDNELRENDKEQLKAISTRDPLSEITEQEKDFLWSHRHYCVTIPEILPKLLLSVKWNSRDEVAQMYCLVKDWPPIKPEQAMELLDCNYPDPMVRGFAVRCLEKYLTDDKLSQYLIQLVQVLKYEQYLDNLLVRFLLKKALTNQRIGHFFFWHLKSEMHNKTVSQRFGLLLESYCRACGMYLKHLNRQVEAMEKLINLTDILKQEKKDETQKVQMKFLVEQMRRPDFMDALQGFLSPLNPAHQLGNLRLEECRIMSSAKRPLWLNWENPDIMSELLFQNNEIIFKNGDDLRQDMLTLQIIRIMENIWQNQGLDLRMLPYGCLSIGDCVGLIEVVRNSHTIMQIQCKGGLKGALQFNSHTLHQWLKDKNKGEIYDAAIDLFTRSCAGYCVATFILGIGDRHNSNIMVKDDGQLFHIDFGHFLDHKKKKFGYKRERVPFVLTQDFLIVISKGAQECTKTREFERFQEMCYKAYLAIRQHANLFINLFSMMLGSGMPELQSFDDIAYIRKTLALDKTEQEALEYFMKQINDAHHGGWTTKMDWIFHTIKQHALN

[24] = biological target: Rho-associated protein kinase 1 (Homo sapiens) (UniProt Q13464); conditions: Compound concentration 100.0 nM
[25] = biological target: Serine/threonine-protein kinase STK11 (Homo sapiens) (UniProt Q15831); conditions: Compound concentration 100.0 nM
[26] = biological target: Serine/threonine-protein kinase LATS1 (Homo sapiens) (UniProt O95835); conditions: Compound concentration 100.0 nM
[27] = biological target: Dual specificity mitogen-activated protein kinase kinase 4 (Homo sapiens) (UniProt P45985); conditions: Compound concentration 100.0 nM
[28] = tested on: Receptor-type tyrosine-protein kinase FLT3 (Homo sapiens), P36888 [UNDEFINED MUTATION]; conditions: Compound concentration 100.0 nM
[29] = biological target: Dual specificity protein kinase CLK1 (Homo sapiens) (UniProt P49759); conditions: Compound concentration 100.0 nM
[30] = biological target: Tyrosine-protein kinase receptor UFO (Homo sapiens) (UniProt P30530); conditions: Compound concentration 100.0 nM
[31] = biological target: cAMP-dependent protein kinase catalytic subunit alpha (Homo sapiens) (UniProt P17612); conditions: Compound concentration 100.0 nM
[32] = biological target: Serine/threonine-protein kinase MRCK gamma (Homo sapiens) (UniProt Q6DT37); conditions: Compound concentration 100.0 nM
[33] = biological target: Calcium/calmodulin-dependent protein kinase type 1B (Homo sapiens) (UniProt Q6P2M8); conditions: Compound concentration 100.0 nM
Chain of Calcium/calmodulin-dependent protein kinase type 1B (Homo sapiens) (Q6P2M8 whole entry): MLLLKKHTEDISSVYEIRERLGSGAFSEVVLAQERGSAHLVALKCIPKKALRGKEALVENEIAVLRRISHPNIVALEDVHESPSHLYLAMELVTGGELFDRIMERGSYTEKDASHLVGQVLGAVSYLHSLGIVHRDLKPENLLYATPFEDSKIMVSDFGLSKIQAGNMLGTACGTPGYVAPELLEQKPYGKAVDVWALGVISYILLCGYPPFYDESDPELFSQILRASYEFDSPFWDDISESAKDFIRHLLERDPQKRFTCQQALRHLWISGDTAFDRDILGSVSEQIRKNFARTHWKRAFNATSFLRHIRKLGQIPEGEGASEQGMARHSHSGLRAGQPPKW

[34] = tested on: Serine/threonine-protein kinase B-raf (Homo sapiens), P15056 [V600E]; conditions: Compound concentration 100.0 nM
[35] = biological target: Calcium/calmodulin-dependent protein kinase type 1G (Homo sapiens) (UniProt Q96NX5); conditions: Compound concentration 100.0 nM
[36] = biological target: Tyrosine-protein kinase SYK (Homo sapiens) (UniProt P43405); conditions: Compound concentration 100.0 nM
[37] = biological target: Ribosomal protein S6 kinase alpha-2 (Homo sapiens) (UniProt Q15349); conditions: Compound concentration 100.0 nM
[38] = biological target: Serine/threonine-protein kinase 35 (Homo sapiens) (UniProt Q8TDR2); conditions: Compound concentration 100.0 nM
[39] = biological target: Serine/threonine-protein kinase VRK2 (Homo sapiens) (UniProt Q86Y07); conditions: Compound concentration 100.0 nM
[40] = biological target: Histamine H2 receptor (Homo sapiens) (UniProt P25021); conditions: Compound concentration 10.0 uM
[41] = biological target: Tyrosine-protein kinase HCK (Homo sapiens) (UniProt P08631); conditions: Compound concentration 100.0 nM
Chain of Tyrosine-protein kinase HCK (Homo sapiens) (P08631 2-526 limits assumed): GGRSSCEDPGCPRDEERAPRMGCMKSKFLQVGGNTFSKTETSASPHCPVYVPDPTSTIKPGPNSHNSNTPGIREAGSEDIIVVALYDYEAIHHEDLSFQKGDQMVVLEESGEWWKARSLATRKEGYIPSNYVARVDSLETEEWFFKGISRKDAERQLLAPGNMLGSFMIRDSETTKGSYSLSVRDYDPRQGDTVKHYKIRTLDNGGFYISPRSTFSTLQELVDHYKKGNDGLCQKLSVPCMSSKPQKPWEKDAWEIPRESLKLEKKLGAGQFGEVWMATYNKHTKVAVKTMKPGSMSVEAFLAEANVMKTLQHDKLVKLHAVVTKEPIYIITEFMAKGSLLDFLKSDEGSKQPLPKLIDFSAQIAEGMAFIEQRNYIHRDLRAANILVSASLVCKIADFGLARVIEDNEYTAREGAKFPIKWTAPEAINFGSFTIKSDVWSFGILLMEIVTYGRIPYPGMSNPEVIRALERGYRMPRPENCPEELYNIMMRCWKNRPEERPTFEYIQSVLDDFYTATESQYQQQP

[42] = biological target: Serine/threonine-protein kinase 38 (Homo sapiens) (UniProt Q15208); conditions: Compound concentration 100.0 nM
[43] = biological target: Phosphatidylinositol 4-phosphate 3-kinase C2 domain-containing subunit beta (Homo sapiens) (UniProt O00750); conditions: Compound concentration 100.0 nM
[44] = biological target: Serine/threonine-protein kinase PLK4 (Homo sapiens) (UniProt O00444); conditions: Compound concentration 100.0 nM
[45] = biological target: D(1A) dopamine receptor (Homo sapiens) (UniProt P21728); conditions: Compound concentration 10.0 uM
Chain of D(1A) dopamine receptor (Homo sapiens) (P21728 whole entry): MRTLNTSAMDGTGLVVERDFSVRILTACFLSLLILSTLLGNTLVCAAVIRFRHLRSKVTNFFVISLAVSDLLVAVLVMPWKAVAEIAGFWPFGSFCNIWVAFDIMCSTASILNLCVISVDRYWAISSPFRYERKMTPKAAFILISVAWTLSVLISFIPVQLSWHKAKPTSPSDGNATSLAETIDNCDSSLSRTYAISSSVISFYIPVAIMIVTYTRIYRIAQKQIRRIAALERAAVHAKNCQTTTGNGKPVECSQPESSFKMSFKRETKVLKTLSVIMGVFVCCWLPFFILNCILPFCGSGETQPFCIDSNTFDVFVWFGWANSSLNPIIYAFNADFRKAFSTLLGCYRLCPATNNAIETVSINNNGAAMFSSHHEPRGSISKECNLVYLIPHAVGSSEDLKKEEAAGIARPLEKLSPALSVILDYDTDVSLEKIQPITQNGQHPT

Chain of Mitogen-activated protein kinase kinase kinase kinase 2 (Homo sapiens) (Q12851 whole entry): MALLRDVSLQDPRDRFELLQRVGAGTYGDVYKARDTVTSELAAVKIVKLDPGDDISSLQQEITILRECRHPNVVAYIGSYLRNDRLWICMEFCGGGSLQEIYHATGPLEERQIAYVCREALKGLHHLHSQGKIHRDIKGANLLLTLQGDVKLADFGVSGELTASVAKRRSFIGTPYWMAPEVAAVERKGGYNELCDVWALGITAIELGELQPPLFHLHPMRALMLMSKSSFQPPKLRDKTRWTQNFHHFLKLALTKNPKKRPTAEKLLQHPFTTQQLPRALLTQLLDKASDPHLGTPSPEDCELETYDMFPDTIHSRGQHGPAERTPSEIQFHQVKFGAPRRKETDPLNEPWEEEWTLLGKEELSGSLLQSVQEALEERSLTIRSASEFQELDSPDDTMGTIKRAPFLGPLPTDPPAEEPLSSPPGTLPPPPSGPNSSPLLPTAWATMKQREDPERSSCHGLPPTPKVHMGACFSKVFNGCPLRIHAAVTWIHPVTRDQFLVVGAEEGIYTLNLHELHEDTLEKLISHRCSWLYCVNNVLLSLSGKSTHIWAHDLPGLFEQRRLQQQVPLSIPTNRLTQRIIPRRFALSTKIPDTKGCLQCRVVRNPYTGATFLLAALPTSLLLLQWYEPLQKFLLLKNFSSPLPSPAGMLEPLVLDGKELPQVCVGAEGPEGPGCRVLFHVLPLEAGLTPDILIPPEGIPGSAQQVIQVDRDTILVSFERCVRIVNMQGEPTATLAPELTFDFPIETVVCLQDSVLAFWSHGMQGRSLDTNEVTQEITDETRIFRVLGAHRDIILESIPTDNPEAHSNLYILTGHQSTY
Chain of Tyrosine-protein kinase FRK (Homo sapiens) (P42685 whole entry): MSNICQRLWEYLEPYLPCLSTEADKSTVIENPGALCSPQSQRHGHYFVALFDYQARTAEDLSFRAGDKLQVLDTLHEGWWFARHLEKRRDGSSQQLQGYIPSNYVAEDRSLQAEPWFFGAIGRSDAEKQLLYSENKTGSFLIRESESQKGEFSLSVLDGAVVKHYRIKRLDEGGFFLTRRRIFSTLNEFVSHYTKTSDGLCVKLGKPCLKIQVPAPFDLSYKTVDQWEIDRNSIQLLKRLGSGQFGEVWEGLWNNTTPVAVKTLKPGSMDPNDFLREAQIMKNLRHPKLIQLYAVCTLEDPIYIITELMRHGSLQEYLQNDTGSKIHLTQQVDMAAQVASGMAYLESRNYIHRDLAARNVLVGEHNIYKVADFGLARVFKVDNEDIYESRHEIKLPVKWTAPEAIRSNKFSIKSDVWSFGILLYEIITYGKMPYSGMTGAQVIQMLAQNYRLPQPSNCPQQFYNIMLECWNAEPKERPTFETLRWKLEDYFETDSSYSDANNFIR

## CC(C)CC(=O)N1CCc2nc(-c3ccc(Br)cc3)nc(N(C)Cc3ccccc3)c2C1 [THPP-1-NC]
[1]
  residual activity: 100%
[2]
  residual activity: 100%
[3]
  residual activity: 100%
[4]
  inhibition: 49.4%
[5]
  residual activity: 89%
[6]
  residual activity: 100%
[7]
  residual activity: 100%
[8]
  residual activity: 100%
[9]
  residual activity: 100%
[10]
  residual activity: 95%
[11]
  residual activity: 98%
[12]
  residual activity: 100%
[13]
  residual activity: 92%
[14]
  residual activity: 89%
[15]
  residual activity: 100%
[16]
  residual activity: 100%
[17]
  residual activity: 100%
[18]
  residual activity: 67%
[19]
  residual activity: 100%
[20]
  residual activity: 99%
[21]
  residual activity: 100%
[22]
  inhibition: 78.8%
[23]
  residual activity: 53%
[24]
  residual activity: 78%
[25]
  residual activity: 100%
[26]
  residual activity: 67%
[27]
  residual activity: 97%
[28]
  residual activity: 92%
[29]
  residual activity: 100%
[30]
  residual activity: 63%
[31]
  residual activity: 89%
[32]
  residual activity: 100%
[33]
  residual activity: 100%
[34]
  residual activity: 100%
[35]
  residual activity: 100%
[36]
  residual activity: 100%
[37]
  residual activity: 100%
[38]
  residual activity: 96%
[39]
  residual activity: 77%
[40]
  inhibition: 3.39%
[41]
  residual activity: 94%
[42]
  residual activity: 100%
[43]
  residual activity: 100%
[44]
  residual activity: 70%
[45]
  inhibition: 18.5%

## COCCOc1nc(-c2ccc(Cl)nc2)nc2c1CN(C(=O)c1ncn3ccccc13)CC2 [THPP-1]
[1]
  residual activity: 100%
[2]
  residual activity: 100%
[3]
  residual activity: 100%
[4]
  inhibition: 38.1%
[5]
  residual activity: 86%
[6]
  residual activity: 100%
[7]
  residual activity: 100%
[8]
  residual activity: 100%
[9]
  residual activity: 100%
[10]
  residual activity: 100%
[11]
  residual activity: 93%
[12]
  residual activity: 100%
[13]
  residual activity: 100%
[14]
  residual activity: 99%
[15]
  residual activity: 100%
[16]
  residual activity: 100%
[17]
  residual activity: 100%
[18]
  residual activity: 65%
[19]
  residual activity: 100%
[20]
  residual activity: 100%
[21]
  residual activity: 100%
[22]
  inhibition: 55.6%
[23]
  residual activity: 88%
[24]
  residual activity: 93%
[25]
  residual activity: 100%
[26]
  residual activity: 70%
[27]
  residual activity: 100%
[28]
  residual activity: 100%
[29]
  residual activity: 100%
[30]
  residual activity: 90%
[31]
  residual activity: 82%
[32]
  residual activity: 100%
[33]
  residual activity: 100%
[34]
  residual activity: 100%
[35]
  residual activity: 100%
[36]
  residual activity: 100%
[37]
  residual activity: 100%
[38]
  residual activity: 100%
[39]
  residual activity: 91%
[40]
  inhibition: -0.24%
[41]
  residual activity: 100%
[42]
  residual activity: 100%
[43]
  residual activity: 100%
[44]
  residual activity: 85%
[45]
  inhibition: -8.34%

Source: ChEMBL document CHEMBL4507293 (2021)
